Experimental findings from ChEMBL document CHEMBL1201862, “PubChem BioAssay data set” (2004) are described below.

Test systems include T47D; MOLT-4; OVCAR-8; HCT-116; EKVX; SF-295; UACC-62; OVCAR-3; BT-549; UACC-257; RPMI-8226; HOP-92; NCI/ADR-RES; OVCAR-5; SNB-75; MDA-MB-435; HCC 2998.
Experiment in all cases: NCI anticancer screen, dose series, 48 h

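These data come from cells grown in 96-well plates and exposed to compound for 48 hours at five concentrations. Here, GI50 denotes the concentration required for 50% inhibition of growth.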 Active and inactive are the calls of the source. Rule as the data show it: active = GI50 up to about 1.1 µM and inactive = higher. Where a SMILES comes first, the peptide text is derived from it. The star is where a group is joined. Boc = CC(C)(C)OC(=O)* Some results are limits rather than exact numbers.

With `CN1C(=O)C2C(=O)N(Cc3ccccc3)CC(=O)N2c2cccnc21` (centres undefined), the GI50 in the assay on T47D, in the assay with MOLT-4, in the assay with OVCAR-8, in the assay with HCT-116, in the assay on EKVX and in the assay with SF-295 was > 100 µM (inactive) in each case. Further, the GI50 in the assay on UACC-62, with OVCAR-3, in the assay with BT-549, in the assay on UACC-257, with RPMI-8226 and with HOP-92 was > 100 µM (inactive) in each case. The GI50 in the assay on NCI/ADR-RES, in the assay with OVCAR-5, in the assay on SNB-75 and with MDA-MB-435 was > 100 µM (inactive) in each case.

As to `O=C1c2ccccc2C(=O)N1CCc1nc(-c2ccccc2)c[nH]1`, the GI50 in the assay with MOLT-4, in the assay with OVCAR-8, with HCT-116, in the assay on EKVX, in the assay on SF-295 and with UACC-62 was > 100 µM (inactive) in each case. Further, the GI50 in the assay with OVCAR-3, in the assay on BT-549, in the assay with UACC-257, with NCI/ADR-RES, with OVCAR-5 and in the assay with SNB-75 was > 100 µM (inactive) in each case. The GI50 in the assay on HCC 2998 was > 100 µM (inactive).

Consider `O=C1C(NCCF)=C(Cl)C(=O)c2ncccc21`, for which the GI50 is 2.05 µM (inactive) in the assay with T47D; 1.22 µM (inactive) in the assay on MOLT-4; 0.8 µM (active) in the assay with OVCAR-8; 1.18 µM (inactive) in the assay with HCT-116; 1.71 µM (inactive) in the assay on EKVX; 1.49 µM (inactive) with SF-295. Moreover, the GI50 in the assay on UACC-62 was 0.247 µM (active); with OVCAR-3, 2.48 µM (inactive); in the assay on BT-549 it was 1.49 µM (inactive); in the assay on UACC-257, 1.4 µM (inactive); in the assay with RPMI-8226, 0.49 µM (active); with HOP-92, 2.08 µM (inactive). Further, the GI50 was 2.04 µM (inactive) in the assay on OVCAR-5, 0.617 µM (active) in the assay on SNB-75, 1.21 µM (inactive) in the assay with HCC 2998 and 0.188 µM (active) with MDA-MB-435.

Turning to `CCOC(=O)c1c(NC(=O)c2ccccc2)c(C#N)c2n1CCCCC2`, the GI50 in the assay on T47D, with MOLT-4, with OVCAR-8, in the assay with HCT-116, in the assay on EKVX and in the assay on SF-295 was > 100 µM (inactive) throughout. Further, the GI50 in the assay on UACC-62, in the assay on UACC-257, in the assay on RPMI-8226, in the assay with HOP-92, in the assay on NCI/ADR-RES and in the assay on OVCAR-5 was > 100 µM (inactive) throughout. For the same molecule, the GI50 in the assay with SNB-75, in the assay on HCC 2998 and in the assay on MDA-MB-435 was > 100 µM (inactive) in each case.

For `O=C(/N=c1/[nH]/c(=N/C(=O)c2ccccc2)ss1)c1ccccc1`, the GI50 in the assay with MOLT-4 is 24.7 µM (inactive); in the assay on OVCAR-8, 27.3 µM (inactive); in the assay on HCT-116, 28.8 µM (inactive); in the assay on EKVX it was 25.4 µM (inactive); with SF-295, 18 µM (inactive); in the assay on UACC-62, > 10 µM (inactive). Moreover, the GI50 with OVCAR-3 was 13.1 µM (inactive); in the assay with UACC-257, 14.6 µM (inactive); in the assay on RPMI-8226, 6.35 µM (inactive); in the assay with OVCAR-5 it was 31.7 µM (inactive); in the assay with SNB-75, 38.6 µM (inactive); in the assay on HCC 2998 it was 18 µM (inactive).

As for `COc1cc(OC)c2c(c1OC)OCC(Cc1ccc(O)cc1)C2=O` (centres undefined), the GI50 was 8.3 µM (inactive) in the assay with T47D; > 25 µM (inactive) with MOLT-4; > 25 µM (inactive) with OVCAR-8; > 25 µM (inactive) with HCT-116; > 25 µM (inactive) with SF-295; > 25 µM (inactive) with UACC-62. In addition, the GI50 is 21 µM (inactive) in the assay with OVCAR-3; > 25 µM (inactive) in the assay with UACC-257; > 25 µM (inactive) in the assay with RPMI-8226; > 25 µM (inactive) with NCI/ADR-RES; > 25 µM (inactive) with OVCAR-5; > 25 µM (inactive) with SNB-75. Further, in the assay on MDA-MB-435, the GI50 is > 25 µM (inactive).

In the case of `Cc1cnc2[nH]c(-c3cccc(Cl)c3)cc(=O)c2c1`, the GI50 in the assay with MOLT-4 is 0.0338 µM (active); in the assay with OVCAR-8, 0.159 µM (active); in the assay on HCT-116, 0.0361 µM (active); in the assay on EKVX it was > 50.1 µM (inactive); with SF-295, 0.0169 µM (active); in the assay on UACC-62 it was 0.0224 µM (active). Further, the GI50 was 0.0216 µM (active) in the assay on OVCAR-3; 2.54 µM (inactive) in the assay on BT-549; 1.05 µM (active) in the assay with UACC-257; < 0.0206 µM (active) in the assay with RPMI-8226; > 100 µM (inactive) with HOP-92; 0.054 µM (active) with NCI/ADR-RES. The GI50 in the assay on SNB-75 is 0.0378 µM (active); in the assay on HCC 2998 it was 0.101 µM (active); in the assay on MDA-MB-435, < 0.01 µM (active).

Consider `Cc1nn(C(=O)Cc2ccccc2)c2c1C(c1ccccc1[N+](=O)[O-])SC(=N)N2` (centres undefined), for which the GI50 in the assay with T47D, with MOLT-4, in the assay on OVCAR-8, in the assay on HCT-116, in the assay with EKVX and in the assay with SF-295 was > 100 µM (inactive) throughout. Besides, the GI50 in the assay with UACC-62 is > 100 µM (inactive); with BT-549, > 100 µM (inactive); in the assay with UACC-257, > 100 µM (inactive); with RPMI-8226, > 100 µM (inactive); in the assay on SNB-75, 83.4 µM (inactive); in the assay on HCC 2998, > 100 µM (inactive). Also, in the assay on MDA-MB-435, the GI50 was > 100 µM (inactive).

For the molecule `COC(=O)C(Cc1c[nH]c2ccccc12)NC(=O)C(Cc1c[nH]c2ccccc12)NC(=O)C(Cc1c[nH]c2ccccc12)NC(=O)C(Cc1c[nH]c2ccccc12)NC(=O)C(Cc1c[nH]c2ccccc12)NC(=O)C(Cc1c[nH]c2ccccc12)NC(=O)C(Cc1c[nH]c2ccccc12)NC(=O)C(Cc1c[nH]c2ccccc12)NC(=O)OC(C)(C)C` (centres undefined) (Boc-WWWWWWWW-OMe; configuration not given here), the GI50 in the assay with MOLT-4 is 44.5 µM (inactive); in the assay on OVCAR-8, > 100 µM (inactive); with HCT-116, 15.3 µM (inactive); in the assay with UACC-62 it was 28.5 µM (inactive); in the assay on OVCAR-3, 83.6 µM (inactive); with BT-549, > 100 µM (inactive). For the same molecule, the GI50 in the assay on UACC-257 was 43.5 µM (inactive); with RPMI-8226, 57.9 µM (inactive); with OVCAR-5, 37.8 µM (inactive); with SNB-75, > 100 µM (inactive); with HCC 2998, > 100 µM (inactive); in the assay with MDA-MB-435 it was > 100 µM (inactive).

As to `COc1ccc(Nc2nc3cc(C(F)(F)F)ccc3nc2C(=O)O)cc1`, the GI50 in the assay with MOLT-4 is 7.87 µM (inactive); in the assay with OVCAR-8 it was 19.3 µM (inactive); in the assay with HCT-116, 15.5 µM (inactive); with EKVX, 22.9 µM (inactive); with SF-295, 13 µM (inactive); with UACC-62, 13.6 µM (inactive). Besides, the GI50 in the assay on OVCAR-3 is 12.6 µM (inactive); in the assay on BT-549, 14.4 µM (inactive); in the assay on UACC-257, 19.1 µM (inactive); with NCI/ADR-RES, 23.1 µM (inactive); with OVCAR-5, 24.2 µM (inactive); with SNB-75, 17.6 µM (inactive). Further, the GI50 was 14.1 µM (inactive) in the assay with HCC 2998 and 22.5 µM (inactive) in the assay with MDA-MB-435.

As to `COc1ccc(/C=C2\OC(=O)C(Cl)=C2c2ccc(OC)cc2)cc1`, the GI50 was > 100 µM (inactive) in the assay on T47D; > 100 µM (inactive) with MOLT-4; 85.7 µM (inactive) with OVCAR-8; > 100 µM (inactive) with EKVX; > 100 µM (inactive) in the assay with SF-295; > 100 µM (inactive) in the assay on UACC-62. The GI50 in the assay with OVCAR-3 was > 100 µM (inactive); in the assay with BT-549, 99.5 µM (inactive); in the assay with UACC-257 it was > 100 µM (inactive); with RPMI-8226, > 100 µM (inactive); with HOP-92, 14 µM (inactive); in the assay with SNB-75, > 100 µM (inactive). In the assay on MDA-MB-435, the GI50 is > 100 µM (inactive).

For the molecule `NS(=O)(=O)c1ccc(NC(=O)c2cc([N+](=O)[O-])cc([N+](=O)[O-])c2)cc1`, the GI50 with T47D was 18.8 µM (inactive); in the assay with MOLT-4 it was 68.9 µM (inactive); in the assay on OVCAR-8, 47.3 µM (inactive); in the assay with HCT-116, 45 µM (inactive); with UACC-62, 15.7 µM (inactive); in the assay on OVCAR-3, 25.8 µM (inactive). The GI50 with BT-549 is > 100 µM (inactive); in the assay with UACC-257 it was 12.8 µM (inactive); with RPMI-8226 it was 30.2 µM (inactive); in the assay with HOP-92 it was 21.7 µM (inactive); in the assay on NCI/ADR-RES, > 100 µM (inactive); in the assay on SNB-75 it was > 100 µM (inactive). The GI50 in the assay with MDA-MB-435 was 17.7 µM (inactive).

On to `O=C1CCc2cc3c(cc21)C(C(=O)O)CC3` (centres undefined), for which the GI50 with T47D, in the assay on MOLT-4, in the assay with OVCAR-8, in the assay on HCT-116, with EKVX and with SF-295 was > 100 µM (inactive) throughout. The GI50 in the assay with UACC-62, with BT-549, with UACC-257, in the assay with RPMI-8226, in the assay with NCI/ADR-RES and in the assay on OVCAR-5 was > 100 µM (inactive) throughout. The GI50 is 87.5 µM (inactive) in the assay on SNB-75 and > 100 µM (inactive) with HCC 2998.

On to `CC(=O)N(C)CCc1c[nH]c2ccccc12`, for which the GI50 in the assay on T47D, with MOLT-4, in the assay on OVCAR-8, in the assay on HCT-116, with EKVX and with SF-295 was > 100 µM (inactive) in each case. Moreover, the GI50 in the assay on UACC-62, with OVCAR-3, in the assay with BT-549, in the assay with UACC-257, in the assay on RPMI-8226 and with NCI/ADR-RES was > 100 µM (inactive) in each case. The GI50 with OVCAR-5, in the assay with SNB-75 and in the assay on MDA-MB-435 was > 100 µM (inactive) throughout.
